In ChEMBL document CHEMBL4507291 (2021):

What was measured:
[1] = target: Serine/threonine-protein kinase 16 (Homo sapiens) (UniProt O75716); assay: STK16 (PKL12) Kinase screen; settings: Compound concentration 1.0 uM
[2] = target: cAMP-dependent protein kinase catalytic subunit alpha (Homo sapiens) (UniProt P17612); assay: PRKACA (PKA) Kinase screen; settings: Compound concentration 1.0 uM
[3] = target: Macrophage-stimulating protein receptor (Homo sapiens) (UniProt Q04912); assay: MST1R (RON) Kinase screen; settings: Compound concentration 1.0 uM
Sequence of Macrophage-stimulating protein receptor (Homo sapiens) (Q04912 25-304 limits assumed): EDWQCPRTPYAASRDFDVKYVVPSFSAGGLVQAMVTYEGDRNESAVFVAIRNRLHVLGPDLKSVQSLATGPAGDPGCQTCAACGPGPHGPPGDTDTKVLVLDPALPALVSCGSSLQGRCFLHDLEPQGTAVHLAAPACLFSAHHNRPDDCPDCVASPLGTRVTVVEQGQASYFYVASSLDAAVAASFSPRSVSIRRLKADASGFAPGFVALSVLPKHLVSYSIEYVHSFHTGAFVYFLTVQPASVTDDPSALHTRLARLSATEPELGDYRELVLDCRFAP
Sequence of Macrophage-stimulating protein receptor (Homo sapiens) (Q04912 310-1400 limits assumed): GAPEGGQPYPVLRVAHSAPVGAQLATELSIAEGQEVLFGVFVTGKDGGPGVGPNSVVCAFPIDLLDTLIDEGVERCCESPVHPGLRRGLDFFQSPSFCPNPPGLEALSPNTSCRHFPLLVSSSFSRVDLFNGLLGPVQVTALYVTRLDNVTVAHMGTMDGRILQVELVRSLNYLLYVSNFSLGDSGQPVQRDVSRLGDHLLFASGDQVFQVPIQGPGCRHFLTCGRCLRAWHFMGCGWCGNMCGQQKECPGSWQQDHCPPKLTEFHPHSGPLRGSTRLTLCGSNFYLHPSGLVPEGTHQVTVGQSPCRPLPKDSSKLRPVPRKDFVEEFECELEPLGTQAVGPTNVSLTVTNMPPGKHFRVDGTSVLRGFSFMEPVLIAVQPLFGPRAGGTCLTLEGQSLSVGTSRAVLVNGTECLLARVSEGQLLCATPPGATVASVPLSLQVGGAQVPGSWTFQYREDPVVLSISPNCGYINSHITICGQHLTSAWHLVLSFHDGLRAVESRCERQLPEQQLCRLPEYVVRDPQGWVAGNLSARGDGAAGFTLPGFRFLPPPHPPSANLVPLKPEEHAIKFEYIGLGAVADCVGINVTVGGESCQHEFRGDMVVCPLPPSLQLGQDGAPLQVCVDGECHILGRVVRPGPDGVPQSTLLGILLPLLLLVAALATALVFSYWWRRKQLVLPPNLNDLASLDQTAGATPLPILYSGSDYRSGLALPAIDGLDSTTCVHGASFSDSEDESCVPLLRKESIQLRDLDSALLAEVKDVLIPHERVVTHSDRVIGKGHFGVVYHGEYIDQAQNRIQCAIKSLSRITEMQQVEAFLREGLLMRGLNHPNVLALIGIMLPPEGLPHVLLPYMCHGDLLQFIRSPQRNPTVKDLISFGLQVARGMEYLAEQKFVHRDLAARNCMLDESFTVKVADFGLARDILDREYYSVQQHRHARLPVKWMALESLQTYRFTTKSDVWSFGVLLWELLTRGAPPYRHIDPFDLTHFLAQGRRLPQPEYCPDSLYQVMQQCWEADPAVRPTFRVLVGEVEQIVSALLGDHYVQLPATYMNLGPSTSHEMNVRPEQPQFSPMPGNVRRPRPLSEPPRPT

[4] = target: T1, Tyrosine-protein kinase ITK/TSK (Homo sapiens) (UniProt Q08881); assay: ITK Kinase screen; settings: Compound concentration 1.0 uM
T1 sequence (whole entry): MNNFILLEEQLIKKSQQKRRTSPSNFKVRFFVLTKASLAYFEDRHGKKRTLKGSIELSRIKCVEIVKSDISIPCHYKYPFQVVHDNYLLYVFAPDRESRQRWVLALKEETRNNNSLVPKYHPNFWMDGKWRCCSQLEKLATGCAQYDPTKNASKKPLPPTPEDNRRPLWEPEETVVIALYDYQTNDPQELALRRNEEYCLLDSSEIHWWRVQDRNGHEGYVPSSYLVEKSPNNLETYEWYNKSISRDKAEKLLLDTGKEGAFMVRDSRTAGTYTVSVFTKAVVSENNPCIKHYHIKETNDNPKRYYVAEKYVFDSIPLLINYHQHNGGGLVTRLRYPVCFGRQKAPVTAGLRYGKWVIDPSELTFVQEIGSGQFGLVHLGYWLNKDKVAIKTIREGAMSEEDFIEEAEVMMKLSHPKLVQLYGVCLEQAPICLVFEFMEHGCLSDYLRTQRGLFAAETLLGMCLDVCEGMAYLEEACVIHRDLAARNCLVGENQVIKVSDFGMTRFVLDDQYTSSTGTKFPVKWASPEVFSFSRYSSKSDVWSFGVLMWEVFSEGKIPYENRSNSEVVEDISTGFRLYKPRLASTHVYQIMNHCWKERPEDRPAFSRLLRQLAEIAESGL

[5] = target: Misshapen-like kinase 1 (Homo sapiens) (UniProt Q8N4C8); assay: MINK1 Kinase screen; settings: Compound concentration 1.0 uM
[6] = target: Protein kinase C alpha type (Homo sapiens) (UniProt P17252); assay: PRKCA (PKC alpha) Kinase screen; settings: Compound concentration 1.0 uM
[7] = tested on: Dual specificity mitogen-activated protein kinase kinase 1 (Homo sapiens), Q02750 [S218D,S222D]; assay: MAP2K1 (MEK1) S218D S222D Kinase screen; settings: Compound concentration 1.0 uM
Sequence of Dual specificity mitogen-activated protein kinase kinase 1 (Homo sapiens), Q02750 [S218D,S222D] (Q02750 whole entry S218D/S222D): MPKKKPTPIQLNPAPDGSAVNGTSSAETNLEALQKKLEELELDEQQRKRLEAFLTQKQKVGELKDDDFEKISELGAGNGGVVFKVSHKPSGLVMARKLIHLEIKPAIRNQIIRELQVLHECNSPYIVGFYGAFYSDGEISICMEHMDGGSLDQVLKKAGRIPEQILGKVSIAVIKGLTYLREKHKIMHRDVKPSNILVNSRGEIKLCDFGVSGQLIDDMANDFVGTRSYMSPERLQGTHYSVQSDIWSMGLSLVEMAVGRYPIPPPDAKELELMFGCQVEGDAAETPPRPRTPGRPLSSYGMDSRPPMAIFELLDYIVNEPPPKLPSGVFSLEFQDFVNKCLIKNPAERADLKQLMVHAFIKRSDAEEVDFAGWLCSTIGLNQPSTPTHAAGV

[8] = target: Mitogen-activated protein kinase kinase kinase 20 (Homo sapiens) (UniProt Q9NYL2); assay: ZAK Kinase screen; settings: Compound concentration 1.0 uM
Sequence of Mitogen-activated protein kinase kinase kinase 20 (Homo sapiens) (Q9NYL2 2-800 limits assumed): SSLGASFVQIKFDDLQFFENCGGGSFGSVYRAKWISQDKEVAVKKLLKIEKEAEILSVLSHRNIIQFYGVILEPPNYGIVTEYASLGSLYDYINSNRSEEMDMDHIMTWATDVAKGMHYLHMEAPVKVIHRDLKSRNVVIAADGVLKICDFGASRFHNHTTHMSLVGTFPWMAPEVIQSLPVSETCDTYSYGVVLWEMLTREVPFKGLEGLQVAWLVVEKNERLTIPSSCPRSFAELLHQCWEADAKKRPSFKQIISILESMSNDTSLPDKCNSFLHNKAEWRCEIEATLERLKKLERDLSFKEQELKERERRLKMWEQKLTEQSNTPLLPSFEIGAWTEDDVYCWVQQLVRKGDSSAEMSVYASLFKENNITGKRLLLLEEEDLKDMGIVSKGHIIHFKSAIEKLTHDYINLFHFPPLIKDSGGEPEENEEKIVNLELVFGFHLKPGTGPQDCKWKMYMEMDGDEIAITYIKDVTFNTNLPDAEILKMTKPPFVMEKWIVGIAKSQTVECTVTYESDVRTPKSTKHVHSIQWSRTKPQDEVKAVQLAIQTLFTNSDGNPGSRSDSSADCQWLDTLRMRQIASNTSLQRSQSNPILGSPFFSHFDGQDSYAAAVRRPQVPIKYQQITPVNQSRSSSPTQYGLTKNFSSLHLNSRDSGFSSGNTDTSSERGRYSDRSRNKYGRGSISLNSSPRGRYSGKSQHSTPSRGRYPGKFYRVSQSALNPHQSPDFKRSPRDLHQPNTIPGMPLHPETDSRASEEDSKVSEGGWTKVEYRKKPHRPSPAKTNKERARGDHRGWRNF

[9] = target: T2, Serine/threonine-protein kinase D1 (Homo sapiens) (UniProt Q15139); assay: PRKD1 (PKC mu) Kinase screen; settings: Compound concentration 1.0 uM
T2 sequence (whole entry): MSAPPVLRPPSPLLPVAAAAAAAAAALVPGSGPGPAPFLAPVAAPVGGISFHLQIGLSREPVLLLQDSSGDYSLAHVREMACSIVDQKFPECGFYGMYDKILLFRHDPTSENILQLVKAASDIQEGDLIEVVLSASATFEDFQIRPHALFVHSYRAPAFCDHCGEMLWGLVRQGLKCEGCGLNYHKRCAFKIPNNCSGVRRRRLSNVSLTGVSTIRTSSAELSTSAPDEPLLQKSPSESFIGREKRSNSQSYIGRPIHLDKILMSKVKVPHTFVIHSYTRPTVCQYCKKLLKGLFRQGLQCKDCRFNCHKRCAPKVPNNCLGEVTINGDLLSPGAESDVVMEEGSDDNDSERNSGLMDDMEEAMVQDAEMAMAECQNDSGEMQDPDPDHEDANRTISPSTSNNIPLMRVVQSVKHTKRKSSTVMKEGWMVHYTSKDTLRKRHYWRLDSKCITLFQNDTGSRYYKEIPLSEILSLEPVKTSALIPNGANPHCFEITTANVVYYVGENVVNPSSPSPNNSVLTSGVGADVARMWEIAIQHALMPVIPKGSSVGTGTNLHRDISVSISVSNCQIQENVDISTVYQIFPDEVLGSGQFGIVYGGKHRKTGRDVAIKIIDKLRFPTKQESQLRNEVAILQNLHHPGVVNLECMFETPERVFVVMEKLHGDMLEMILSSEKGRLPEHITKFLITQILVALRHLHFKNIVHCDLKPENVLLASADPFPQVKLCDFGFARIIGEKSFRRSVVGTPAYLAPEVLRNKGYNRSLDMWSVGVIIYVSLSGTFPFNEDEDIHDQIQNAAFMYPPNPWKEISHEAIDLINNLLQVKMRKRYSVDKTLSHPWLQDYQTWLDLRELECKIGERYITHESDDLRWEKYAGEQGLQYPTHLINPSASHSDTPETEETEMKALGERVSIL

[10] = target: T3, Serine/threonine-protein kinase Sgk2 (Homo sapiens) (UniProt Q9HBY8); assay: SGK2 Kinase screen; settings: Compound concentration 1.0 uM
T3 sequence (whole entry): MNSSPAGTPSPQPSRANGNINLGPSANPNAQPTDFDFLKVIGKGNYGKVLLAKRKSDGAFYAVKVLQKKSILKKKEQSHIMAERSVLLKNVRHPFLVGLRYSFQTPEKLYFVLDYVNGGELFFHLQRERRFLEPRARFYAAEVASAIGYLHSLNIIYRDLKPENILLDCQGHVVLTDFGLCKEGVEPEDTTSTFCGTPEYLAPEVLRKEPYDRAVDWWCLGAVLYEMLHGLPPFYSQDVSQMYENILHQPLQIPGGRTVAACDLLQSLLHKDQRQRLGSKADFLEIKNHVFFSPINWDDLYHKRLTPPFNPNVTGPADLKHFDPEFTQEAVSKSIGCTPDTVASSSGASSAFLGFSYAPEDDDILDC

[11] = target: T4, Mitogen-activated protein kinase 12 (Homo sapiens) (UniProt P53778); assay: MAPK12 (p38 gamma) Kinase screen; settings: Compound concentration 1.0 uM
T4 sequence (whole entry): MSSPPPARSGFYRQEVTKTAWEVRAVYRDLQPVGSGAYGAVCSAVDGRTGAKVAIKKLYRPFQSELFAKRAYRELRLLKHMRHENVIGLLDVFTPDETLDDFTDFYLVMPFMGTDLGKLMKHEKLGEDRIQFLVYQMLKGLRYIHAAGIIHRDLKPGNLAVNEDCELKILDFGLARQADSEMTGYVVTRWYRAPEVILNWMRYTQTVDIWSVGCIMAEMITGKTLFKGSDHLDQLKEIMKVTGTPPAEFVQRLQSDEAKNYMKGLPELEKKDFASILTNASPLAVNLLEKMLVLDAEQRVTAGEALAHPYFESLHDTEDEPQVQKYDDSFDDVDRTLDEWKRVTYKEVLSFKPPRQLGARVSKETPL

[12] = target: Endothelin receptor type B (Homo sapiens) (UniProt P24530); settings: Compound concentration 10.0 uM
Sequence of Endothelin receptor type B (Homo sapiens) (P24530 whole entry): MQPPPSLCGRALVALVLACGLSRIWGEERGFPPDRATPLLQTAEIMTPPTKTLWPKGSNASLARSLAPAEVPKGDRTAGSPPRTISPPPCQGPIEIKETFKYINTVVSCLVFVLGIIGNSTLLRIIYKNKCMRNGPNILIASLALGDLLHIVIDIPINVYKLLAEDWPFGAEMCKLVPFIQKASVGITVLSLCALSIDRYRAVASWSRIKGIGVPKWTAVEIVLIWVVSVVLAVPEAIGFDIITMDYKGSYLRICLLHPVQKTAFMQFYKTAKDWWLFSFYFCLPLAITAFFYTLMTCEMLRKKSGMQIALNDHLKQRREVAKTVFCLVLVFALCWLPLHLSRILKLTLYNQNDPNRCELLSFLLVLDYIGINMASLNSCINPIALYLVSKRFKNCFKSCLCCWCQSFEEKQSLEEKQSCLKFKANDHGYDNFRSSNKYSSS

[13] = target: Protein-tyrosine kinase 6 (Homo sapiens) (UniProt Q13882); assay: PTK6 (Brk) Kinase screen; settings: Compound concentration 1.0 uM
Sequence of Protein-tyrosine kinase 6 (Homo sapiens) (Q13882 whole entry, looked up): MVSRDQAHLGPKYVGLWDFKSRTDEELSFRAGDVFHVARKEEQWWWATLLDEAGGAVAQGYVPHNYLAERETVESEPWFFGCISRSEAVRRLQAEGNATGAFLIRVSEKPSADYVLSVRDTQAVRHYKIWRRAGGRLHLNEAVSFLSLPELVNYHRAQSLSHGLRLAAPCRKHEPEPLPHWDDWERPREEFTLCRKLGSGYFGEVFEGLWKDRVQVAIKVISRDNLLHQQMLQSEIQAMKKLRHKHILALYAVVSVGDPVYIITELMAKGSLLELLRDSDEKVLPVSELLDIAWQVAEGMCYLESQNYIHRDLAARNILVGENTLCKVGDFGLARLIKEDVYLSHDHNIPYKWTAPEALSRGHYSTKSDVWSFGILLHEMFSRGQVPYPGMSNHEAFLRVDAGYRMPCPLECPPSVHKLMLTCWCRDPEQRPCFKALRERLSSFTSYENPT

[14] = target: Serine/threonine-protein kinase 33 (Homo sapiens) (UniProt Q9BYT3); assay: STK33 Kinase screen; settings: Compound concentration 1.0 uM
[15] = target: Gamma-aminobutyric acid type B receptor subunit 1 (Homo sapiens) (UniProt Q9UBS5); settings: Rattus norvegicus; Compound concentration 10.0 uM
Sequence of Gamma-aminobutyric acid type B receptor subunit 1 (Homo sapiens) (Q9UBS5 whole entry): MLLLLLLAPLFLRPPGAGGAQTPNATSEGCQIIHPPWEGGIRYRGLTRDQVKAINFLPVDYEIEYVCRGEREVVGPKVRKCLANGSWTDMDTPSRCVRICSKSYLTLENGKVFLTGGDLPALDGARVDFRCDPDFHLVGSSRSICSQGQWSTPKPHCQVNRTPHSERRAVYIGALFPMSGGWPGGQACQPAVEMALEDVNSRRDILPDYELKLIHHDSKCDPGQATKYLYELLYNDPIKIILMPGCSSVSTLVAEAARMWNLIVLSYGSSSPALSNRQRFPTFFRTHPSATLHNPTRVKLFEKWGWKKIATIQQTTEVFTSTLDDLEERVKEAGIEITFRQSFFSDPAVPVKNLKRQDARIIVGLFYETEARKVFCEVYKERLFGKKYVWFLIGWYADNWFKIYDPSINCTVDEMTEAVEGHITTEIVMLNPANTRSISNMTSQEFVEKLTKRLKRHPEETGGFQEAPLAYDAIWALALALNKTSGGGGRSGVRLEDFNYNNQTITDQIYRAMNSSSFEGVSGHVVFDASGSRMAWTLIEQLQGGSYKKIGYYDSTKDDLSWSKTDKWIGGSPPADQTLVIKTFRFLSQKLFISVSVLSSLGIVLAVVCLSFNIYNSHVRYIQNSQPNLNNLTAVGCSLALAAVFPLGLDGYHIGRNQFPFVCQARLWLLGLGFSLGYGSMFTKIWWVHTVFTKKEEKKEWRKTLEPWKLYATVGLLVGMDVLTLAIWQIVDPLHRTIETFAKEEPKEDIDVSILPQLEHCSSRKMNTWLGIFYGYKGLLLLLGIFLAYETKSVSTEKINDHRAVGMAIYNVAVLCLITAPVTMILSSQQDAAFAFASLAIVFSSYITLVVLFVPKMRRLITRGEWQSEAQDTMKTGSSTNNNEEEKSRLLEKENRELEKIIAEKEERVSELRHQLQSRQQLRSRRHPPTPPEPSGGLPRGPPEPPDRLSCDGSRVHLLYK

[16] = target: CDK8/Cyclin C (Homo sapiens) (UniProt P49336+P24863); assay: CDK8/cyclin C Kinase screen; assay type: protein-complex assay; settings: Compound concentration 1.0 uM

Measured: inhibition

Sequence of Serine/threonine-protein kinase 16 (Homo sapiens) (O75716 whole entry): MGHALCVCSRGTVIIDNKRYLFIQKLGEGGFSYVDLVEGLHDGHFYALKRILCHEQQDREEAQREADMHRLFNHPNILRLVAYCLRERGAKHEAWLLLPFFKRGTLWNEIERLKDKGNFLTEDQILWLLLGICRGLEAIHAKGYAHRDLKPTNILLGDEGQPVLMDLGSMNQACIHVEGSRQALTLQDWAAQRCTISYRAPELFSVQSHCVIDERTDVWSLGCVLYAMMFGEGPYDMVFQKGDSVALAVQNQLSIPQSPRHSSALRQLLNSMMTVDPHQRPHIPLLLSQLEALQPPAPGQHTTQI

C[C@@H]1CN(c2cc(-c3n[nH]c4ccc(OC5(C)CC5)cc34)ncn2)C[C@H](C)O1 [MLi-2]
inactive: [1] 2.58% | [2] -2.26% | [3] 1.51% | [4] 2.04% | [5] 4.58% | [6] -4.08% | [7] 6.92% | [8] 4.32% | [9] 13.2% | [10] 1.36% | [11] 1% | [12] -1% | [13] 2.74% | [14] 24.3% | [15] -3% | [16] 8.75%
